According to patent US11623944B2, “Paenibacillus strain, antifungal compounds, and methods for their use” (Bayer CropScience LP, priority 2015, dated 2023):
Where a SMILES comes first, the peptide text is derived from it. Bridges are numbered along the chain shown (N, C = ends). [ ]: non-standard residue; d: D form. The star is where a group is joined. ξ: configuration not given here. Pentadecanoyl(3ξ-OH,15-Gua) = N=C(N)NCCCCCCCCCCCCC(O)CC(=O)*; d(aThr) = C[C@@H](O)[C@@H](N)C(=O)O

How the values were obtained:
[1] = system: Paenibacillus sp. strain NRRL B-50972; test: Antibiotic sensitivity on sLB agar; type: cell-based; settings: growth after 24, 48, 72 hours at 30° C.
[2] = system: Xanthomonas campestris (XANTAV); test: In vitro antibacterial 96-well plate assay (absorbance)
Method: (§1) The in vitro antibacterial 96-well plate assay uses absorbance as an indicator for bacterial growth. The assay measures the potency of a sample to inhibit bacterial growth by comparing the absorbance of the untreated wells to the sample wells. The last dilution/concentration that inhibits the growth of the bacteria is called the MIC (minimum inhibitory concentration) and this value can be used to compare the efficacy of different samples. The assay was evaluated with three agricultural-relevant bacterial diseases: Xanthomonas campestris (XANTAV), Pseudomonas syringae (PSDM™), and Erwinia carotovora (ERWICA).

[3] = system: Botrytis cinerea (BOTRCI); test: In vitro antifungal 96-well plate assay (PRESTOBLUE); type: cell-based; settings: Minimum Inhibitory Concentration for 80%
Method: The in vitro antifungal 96-well plate assay utilizes the resazurin-based cell viability reagent PRESTOBLUE® as an indicator for fungal growth. […] The assay was prepared with three agricultural-relevant fungal diseases: Alternaria solani ([…]), Colletotrichum lagenarium (COLLLA), and Botrytis cinerea (BOTRCI).

[4] = system: Erwinia carotovora (ERWICA); test: In vitro antibacterial 96-well plate assay (absorbance); settings: NDR = no inhibition of bacterial growth at the highest concentrations tested
Method: as §1

[5] = system: Pseudomonas syringae (PSDMTM); test: as above; settings: NDR = no inhibition of bacterial growth at the highest concentrations tested
Method: as §1

[6] = system: Alternaria solani (ALTESO); test: In vitro antifungal 96-well plate assay (PRESTOBLUE); type: cell-based; settings: for potency of asparagine analogue relative to its glutamine counterpart: Fusaricidin A vs Fusaricidin B, LiF08a vs LiF08b; for potency of asparagine analogue relative to its glutamine counterpart / relative potency of analogues differing at amino acid positions (2) and (3): FIG. 17; for relative potency of analogues differing at amino acid positions (2) and (3): Fusaricidin A, LiF05a, LiF06a, LiF08a compared; for Efficacy in % found: 0.25 mg/mL, alone
[7] = system: Colletotrichum lagenarium (COLLLA); test: as above; type: cell-based; settings: Minimum Inhibitory Concentration for 80%

SMILES: CN(C)[C@@H]1C(=O)C(C(N)=O)=C(O)[C@@]2(O)C(=O)C3=C(O)c4c(O)cccc4[C@@](C)(O)[C@H]3C[C@@H]12 [Tetracyclin]
- Sensitive/Resistant ([1]; antibiotic 5 μg/mL): Sensitive

SMILES: CC(C)[C@@H]1NC(=O)[C@@H](C(C)C)NC(=O)[C@@H](NC(=O)CC(O)CCCCCCCCCCCCN=C(N)N)[C@@H](C)OC(=O)[C@@H](C)NC(=O)[C@@H](CC(N)=O)NC(=O)[C@@H]([C@@H](C)O)NC1=O (some centres unmarked) [Fusaricidin A] ({Pentadecanoyl(3ξ-OH,15-Gua)}-T[dV]V[d(aThr)][dN][dA]; ester 1-C)
- MIC80 XANTAV [2]: 24 ppm
- MIC80 BOTRCI [3]: 1.5 ppm
- MIC80 ERWICA [4]: 75 ppm
- MIC80 PSDMTM [5]: NDR*
- potency of asparagine analogue relative to its glutamine counterpart [6]: over twice more potent
- relative potency of analogues differing at amino acid positions (2) and (3) [6]: most potent
- MIC80 ALTESO ([6]; Minimum Inhibitory Concentration for 80%): 1.6 ppm
- Efficacy in % found ([6]; Table 23): 39.0%
- Efficacy in % found ([6]; Table 24): 42.0%
- MIC80 COLLLA [7]: 6.3 ppm

SMILES: CC[C@H]1OC(=O)[C@H](C)[C@@H](O[C@H]2C[C@@](C)(OC)[C@@H](O)[C@H](C)O2)[C@H](C)[C@@H](O[C@@H]2O[C@H](C)C[C@H](N(C)C)[C@H]2O)[C@](C)(O)C[C@@H](C)C(=O)[C@H](C)[C@@H](O)[C@]1(C)O [Erythromycin]
- Sensitive/Resistant ([1]; antibiotic 5 μg/mL): Sensitive

SMILES: CN[C@@H]1[C@H](O)[C@H](NC)[C@H]2O[C@@]3(O)C(=O)C[C@@H](C)O[C@H]3O[C@@H]2[C@H]1O [Spectinomycin]
- Sensitive/Resistant ([1]; antibiotic 100-250 μg/mL): Resistant (growth, albeit reduced,

SMILES: CCC[C@@H]1C[C@@H](C(=O)N[C@@H]([C@H]2O[C@H](SC)[C@H](O)[C@@H](O)[C@H]2O)[C@@H](C)O)N(C)C1 [Lincomycin]
- Sensitive/Resistant ([1]; antibiotic 25 μg/mL): Resistant

SMILES: O=C(N[C@H](CO)[C@H](O)c1ccc([N+](=O)[O-])cc1)C(Cl)Cl [Chloramphenicol]
- Sensitive/Resistant ([1]; antibiotic 5 μg/mL): Resistant

SMILES: CC[C@@H](C)[C@H]1NC(=O)[C@@H](NC(=O)CC(O)CCCCCCCCCCCCN=C(N)N)[C@@H](C)OC(=O)[C@@H](C)NC(=O)[C@@H](CC(N)=O)NC(=O)[C@@H]([C@@H](C)O)NC(=O)[C@H]([C@@H](C)CC)NC1=O (some centres unmarked) [LiF08a] ({Pentadecanoyl(3ξ-OH,15-Gua)}-T[dI]I[d(aThr)][dN][dA]; ester 1-C)
- potency of asparagine analogue relative to its glutamine counterpart [6]: over twice more potent
- relative potency of analogues differing at amino acid positions (2) and (3) [6]: most potent
